The results in this text go back to ChEMBL document CHEMBL1134047, “Binding of a cyclic BIV beta-Tat peptide with its TAR RNA construct” (Bioorg Med Chem Lett, 2001).

Structures are written as SMILES.

The subject of this experiment is Nucleic Acid. Description: Binding affinity to the ([…]) BIV TAR RNA target was determined by fluorescence binding study. It counts as nucleic-acid assay, Bos taurus.
As to `CC[C@H](C)[C@H](NC(=O)[C@H](CCCN=C(N)N)NC(=O)[C@H](CCCN=C(N)N)NC(=O)CNC(=O)[C@H](CCCCN)NC(=O)CNC(=O)[C@H](CCCN=C(N)N)NC(=O)[C@@H](NC(=O)CNC(=O)[C@H](CCCN=C(N)N)NC(=O)[C@H]1CCCN1C(=O)[C@H](CCCN=C(N)N)NC(=O)[C@H]1CCCN1C(=O)CNC(=O)[C@H](CO)NC(=O)[C@@H](N)CS)[C@@H](C)O)C(=O)N[C@@H](CCCN=C(N)N)C(N)=O`, the Kd was found to be 1.28 nM.

As for `CC[C@H](C)[C@@H]1NC(=O)[C@@H](CCCNC(=N)N)NC(=O)[C@H](CCCNC(=N)N)NC(=O)CNC(=O)[C@H](CCCCN)NC(=O)CNC(=O)[C@H](CCCNC(=N)N)NC(=O)[C@@H]([C@@H](C)O)NC(=O)CNC(=O)[C@@H](CCCNC(=N)N)NC(=O)[C@@H]2CCCN2C(=O)[C@@H](CCCNC(=N)N)NC(=O)[C@H]2CCCN2C(=O)CNC(=O)[C@@H](CO)NC(=O)[C@@H](N)CSSC[C@@H](C(=O)O)NC(=O)[C@H](CCCNC(=N)N)NC(=O)[C@@H](CCCNC(=N)N)NC1=O`, binding was put at a Kd of 0.273 nM.

In turn, `CC[C@H](C)[C@H](NC(=O)[C@H](CCCNC(=N)N)NC(=O)[C@H](CCCNC(=N)N)NC(=O)CNC(=O)[C@H](CCCCN)NC(=O)CNC(=O)[C@H](CCCNC(=N)N)NC(=O)[C@@H](NC(=O)CNC(=O)[C@H](CCCNC(=N)N)NC(=O)[C@H]1CCCN1C(=O)[C@H](CCCNC(=N)N)NC(=O)[C@H]1CCCN1C(=O)CNC(=O)[C@@H](N)CO)[C@@H](C)O)C(=O)N[C@@H](CCCNC(=N)N)C(=O)N[C@@H](CCCNC(=N)N)C(=O)O` displayed a Kd of 1.32 nM.
